Experimental data published in patent publication US20100197627A1, “PANCREATIC CANCER TREATMENT” (priority 2003, published 2010).

Columns and labels:
[1] = test system: MIA-PaCa-2-RFP pancreatic cancer; assay: Efficacy of oral CS-682 in surgical orthotopic implantation (SOI) mouse model of MIA-PaCa-2-RFP pancreatic cancer (Example 1); format: in vivo, nude mice (NCr-nu); conditions: for median survival: control 17 days; for mice with evident intra-abdominal fluid (ascites) on examination: 100% of controls within 16 days
Description: The model employed pancreatic tumors derived from the MIA-PaCa-2 pancreatic cancer cell line.
The MIA-PaCa-2 pancreatic cancer cell line was obtained from the American Type Culture Collection (Rockville, Md.), maintained in DMEM media supplemented with 10% heat-inactivated fetal bovine serum and 1% penicillin and streptomycin (Gibco-BRL, Life Technologies, Inc., Grand Island, N.Y.) and cultured at 37° C. in a 5% CO2 incubator.
The pDsRed-2 vector (Clontech Laboratories Inc., Palo Alto, Calif.) was used to engineer MIA-PaCa-2 clones stably expressing RFP. This vector expresses RFP and the neomycin resistance gene on the same bicistronic message. pDsRed-2 was produced in PT67 packaging cells. RFP transduction was initiated by incubating 20% confluent MIA-PaCa-2 cells with retroviral supernatants of the packaging cells and DMEM for 24 hours. Fresh medium was replenished at this time and cells were allowed to grow in the absence of retrovirus for 12 hours. This procedure was repeated until high levels of RFP expression, as determined using fluorescence microscopy, were achieved. Cells were then harvested by trypsin/EDTA and subcultured into selective medium that contained 200 μg/ml G418. The level of G418 was increased to 2000 μg/ml stepwise. Clones expressing high levels of RFP were isolated with cloning cylinders as needed, and were amplified and transferred using conventional culture methods. High RFP-expression clones were isolated in the absence of G418 for 10 passages to select for stable expression of RFP in vivo.
Male nude mice (NCr-nu) between 4-6 weeks of age were maintained in a barrier facility on HEPA-filtered racks. The animals were fed with autoclaved laboratory rodent diet (Teckland LM-485; Western Research Products, Orange, Calif.). Animal experiments were performed in accordance with the Guidelines for the Care and Use of Laboratory Animals (NIH Publication Number 85-23) under assurance number A3873-01.
Red-fluorescent human pancreatic cancer xenografts were established in nude mice by surgical orthotopic implantation (SOI). Briefly, MIA-PaCa-2-RFP tumors in the exponential growth phase, grown subcutaneously in nude mice, were resected aseptically. Necrotic tissues were cut away, and the remaining healthy tumor tissues were cut with scissors and minced into 1 mm^3 pieces in RPMI 1640 medium. Mice were then anesthetized and their abdomens were sterilized with alcohol. An incision was then created through the left upper abdominal pararectal line and peritoneum. The pancreas was carefully exposed and two tumor pieces were transplanted onto the middle of the gland using a single 8-0 surgical suture (Davis-Geck, Inc., Manati, Puerto-Rico). The pancreas was then returned into the peritoneal cavity, and the abdominal wall and the skin were closed in two layers using 6-0 surgical sutures. All procedures were performed with a 7× microscope (Olympus) or standard surgical loupes.
(§1) CS-682 (1-(2-C-cyano-2-deoxy-β-D-arabino-pentofuranosyl)-N^4-palmitoylcytosine, Sankyo Pharmaceuticals, Tokyo) was administered by oral gavage. Prior to the first treatment, mice were randomized into eight groups of 10 mice each for treatment purposes.
(§2) Groups 2, 3 and 4 received 40, 60 and 80 mg/kg/dose CS-682, respectively, each scheduled treatment day.
(§3) […] received 20, 30, 40 and 50 mg/kg/dose CS-682 twice each treatment day, respectively.
(§4) Dosing was initiated five days after surgical orthotopic implantation, and was performed five days each week until death.
External, in vivo whole body imaging, for at least once a week, mice were weighed and underwent external, in vivo imaging. This was performed in a fluorescent light box illuminated by fiberoptic lighting at 470 nm (Lightools Research, Encinitas, Calif.). Emitted fluorescence was collected through a long-pass filter GG475 (Chroma Technology, Battleboro, Vt.) on a Hamamatsu C5810 3-chip cooled color CCD camera (Hamamatsu Photonics Systems, Bridgewater, N.J.). […]

[2] = Body weight loss and toxicity of oral CS-682 in tumor-bearing nude mice (Example 1); format: in vivo; conditions: doses higher than 60 mg/kg per day, oral gavage
Description: as §1, §2, §3, §4
External, in vivo whole body imaging, for at least once a week, mice were weighed and underwent external, in vivo imaging. This was performed in a fluorescent light box illuminated by fiberoptic lighting at 470 nm (Lightools Research, Encinitas, Calif.). Emitted fluorescence was collected through a long-pass filter GG475 (Chroma Technology, Battleboro, Vt.) on a Hamamatsu C5810 3-chip cooled color CCD camera (Hamamatsu Photonics Systems, Bridgewater, N.J.). […] Images were processed for contrast and brightness and analyzed with the use of Image Pro Plus 3.1 software (Media Cybernetics, Silver Spring, Md.). Real-time determination of tumor burden was performed by quantifying fluorescent surface area, as described previously (Bouvet, M., et al., Cancer Res. (2002) 62:1534-1540).

[3] = test system: MIA-PaCa-2-RFP pancreatic cancer; assay: Primary and adjuvant (after surgical resection) CS-682 in orthotopic MIA-PaCa-2-RFP metastatic pancreatic cancer mouse model (Example 2); format: in vivo, nude mice
Excerpt: The efficacy of oral CS-682 in the adjuvant treatment of metastatic pancreatic cancer was studied. […] The study discussed below used a highly aggressive clone of the human pancreatic cancer cell line MIA-PaCa-2 pancreatic cancer cell line that was engineered, as discussed above, to selectively express high levels of the Discosoma red fluorescent protein. This brightly fluorescent model facilitated the noninvasive quantification of tumor burden throughout the course of treatment.
The MIA-PaCa-2 pancreatic cancer cell line and the animals used in the study were prepared as discussed in Example 1, with the following exceptions. Following orthotopic implantation of MIA-PaCa-2-RFP tumors, each mouse in a treatment group requiring surgical resection of the primary pancreatic tumor was anesthetized and prepared for surgery. The peritoneum was subsequently reopened through the original incision and an examination of adjacent structures was performed to ensure that macroscopic disease was localized to the pancreas. All grossly visible tumor was removed using sharp dissection. Hemostasis was achieved using 6-0 sutures. The abdomen was then closed in two layers.
(§5) Seven days after SOI, mice were randomized into eight groups of 10 mice each, depending upon whether they were to be treated by surgical resection, chemotherapy or both. Mice in groups 1-4 were not treated surgically. […] Mice in groups 2-4 were treated with primary CS-682 at doses of 40, 50 Or 60 mg/kg each treatment day, respectively, according to the treatment schedules outlined below.
(§6) Mice in groups 5-8 underwent surgical resection of their primary tumors 7 days after orthotopic implantation by a single blinded surgeon. Mice in group 5 received no additional chemotherapy; mice in groups 6-8 received adjuvant CS-682 at doses of 40, 50 or 60 mg/kg each treatment day, respectively.
(§7) CS-682 was administered by oral gavage. Treatment with primary or adjuvant CS-682 was initiated 9 days after orthotopic tumor implantation (2 days after surgical resection when applicable) and was to be administered five times each treatment week for a total of 5 weeks or until death. […] In these groups, CS-682 was administered 9 times in weeks 1 and 2 after SOI and then 10 times in weeks 4 and 5, with a treatment hiatus during week 3.
(§8) Twice/week, mice were weighed and underwent external in vivo imaging. This was performed in a fluorescent light box illuminated by fiberoptic lighting at 470 nm (Lightools Research, Encinitas Calif.). […] Emitted fluorescence was collected through a long-pass filter GG475 (Chroma Technology, Battleboro, Vt.) on a Hamamatsu C5810 3-chip cooled color charge-coupled device camera (Hamamatsu Photonics Systems, Bridgewater, N.J.). High-resolution images of 1024×724 pixels were captured directly on an IBM PC or continuously through video output on a high-resolution Sony VCR model SLV-R1000 (Sony Corp., Tokyo, Japan). Images were processed for contrast and brightness and analyzed with the use of Image Pro Plus 3.1 software (Media Cybernetics, Silver Spring, Md.). Real-time determination of tumor burden was performed by quantifying fluorescent surface area.
Mice were sacrificed and explored when they appeared premorbid. After euthanasia, each mouse underwent laparotomy and sternotomy. Excitation of RFP in the light box, described above, facilitated identification of primary and metastatic disease by fluorescence visualization. After performing full-body open images, the solid organs were removed, and their surfaces were thoroughly examined for any evidence of metastases. Fluorescence microscopy was accomplished using a Leica fluorescence stereo microscope model LZ12 (Leica Microsystems, Inc., Bannockburn, Ill.) equipped with a mercury 50-W lamp power supply. Selective excitation of RFP was produced through a […]. Emitted fluorescence was collected by the Hamamatsu camera system described above. […]

[4] = Analysis of toxicity (body weight, general appearance) of CS-682 in Example 2 mice; format: in vivo; conditions: for body weight: oral gavage
Description: as §5, §6, §7, §8
The body weight and general appearance of each mouse were monitored and recorded twice weekly as evidence of systemic toxicity. […] Wasting of body fat, most pronounced in the interscapular area of the back, was a common late finding that occurred in conjunction with disseminated disease.

[5] = test system: subcutaneously-implanted solid tumor xenografts; conditions: several subcutaneously-implanted solid tumor xenografts; cited from earlier work
[6] = test system: tumor cell lines of the stomach, lung, colon and breast; conditions: oral CS-682; cited from earlier work

CCCCCCCCCCCCCCCC(=O)Nc1ccn([C@@H]2O[C@H](CO)[C@@H](O)[C@@H]2C#N)c(=O)n1 [CS-682, 1-(2-C-cyano-2-deoxy-β-D-arabino-pentofuranosyl)-N^4-palmitoylcytosine]
median survival ([1]; 20 mg/kg twice daily oral, p=0.003): 27 days | tumor growth (mean area of external RFP autofluorescence) ([1]; 20 mg/kg twice daily, 40 mg/kg daily and 60 mg/kg daily, p<0.05 at each time point): inhibit pancreatic cancer growth | median survival ([1]; 30 mg/kg twice daily oral): 19 days | time until widespread tumor metastasis visible by whole-body RFP imaging ([1]; 40 mg/kg and 60 mg/kg daily, control within first two weeks): not visible until the third and fourth week post-implantation | development of metastases at autopsy (diaphragm, portal nodes, liver, intestinal nodes, kidney) ([1]; 40 mg/kg daily): significantly inhibited the development of metastases | median survival ([1]; 40 mg/kg daily oral, p=0.0008): 35 days | mice with locally confined disease ([1]; 40 mg/kg daily, day 16 after implantation): 90% | mice with evident intra-abdominal fluid (ascites) on examination ([1]; 40 mg/kg daily): 50% | primary tumor average weight at autopsy ([1]; 40 mg/kg daily, control 5.163 g, p=0.16): 3.935 g | median survival ([1]; 40 mg/kg twice daily oral): 19 days | median survival ([1]; 50 mg/kg twice daily oral): 18 days | effect on primary tumor growth (weight at autopsy) ([1]; 60 mg/kg daily (p=0.0004), 20 mg/kg twice daily (p=0.003)): significant effect on primary tumor growth | median survival ([1]; 60 mg/kg daily oral, p=0.002): 36 days | mice with evident intra-abdominal fluid (ascites) on examination ([1]; 60 mg/kg daily): 10% | median survival ([1]; 80 mg/kg daily oral): 19 days | toxicity-related death [2]: toxicity-related death was observed in a significant number of mice | mice that lived at least 60 days ([3]; adjuvant 50 mg/kg after surgical resection): 30% | animals with at most local disease confined to one abdominal quadrant ([3]; adjuvant 50 mg/kg after surgical resection, day 23): 70% | median survival ([3]; adjuvant 50 mg/kg after surgical resection, untreated 26 days, resection alone 28 days): 48 days | time after completion of chemotherapy until distant metastasis seen ([3]; adjuvant 50 mg/kg, the 30% of mice with long-term survival): 10 days | animals showing signs of fluid retention (ascites) at the time of their death ([3]; adjuvant CS-682 after surgical resection): 20% | survival versus treatment controls ([3]; adjuvant CS-682 after surgical resection, all doses tested (40, 50, 60 mg/kg)): significant increase in survival over treatment controls | survival versus untreated ([3]; primary CS-682 without resection, 40, 50 and 60 mg/kg): significantly enhanced the survival | body weight ([4]; 40 mg/kg each treatment day): not associated with a significant loss in body weight | body weight ([4]; 50 mg/kg each treatment day, chronic): did not lead to a significant loss of body weight | loss in body weight ([4]; 60 mg/kg, by day 20, after first nine doses): 15% | animals lost to toxicity ([4]; 60 mg/kg, modified schedule with hiatus in week 3, day 41): 1 animal | antitumor activity [5]: potent antitumor activity | cytotoxic activity compared with parent compound CNDAC [6]: more potent cytotoxic activity than its parent compound
